Reference: patent US20240101496A1, “SYNERGISTIC ACTION OF DCD AND ALKOXYPYRAZOLES AS NITRIFICATION INHIBITORS” (BASF SE, priority 2021, published 2024)

Columns and labels:
[1] = test system: nitrification in soil Limburgerhof; experiment: Inhibition of nitrification in soil, mixtures with R^1 is CH2CH3, tested analogously (50 g soil, 4 replicates, 28 and 42 days); conditions: R^1 is CH2CH3 series
Experimental: (§1) 100 g soil (soil Limburgerhof with pH(CaCl2) 6.8; 73% sand, 23% silt, 4% clay, which is classified according to FAO as a sandy loam) is filled into 500 ml plastic bottles and is moistened to 50% water holding capacity. The soil is incubated at 20° C. for two weeks prior to the experiments to activate the microbial biomass. 1 ml test solution, containing the components of the mixture in the appropriate concentration (usually from 0.1 to 3.13% (w/w) of fertilized NH4—N), and 10 mg nitrogen in the form of ammoniumsulfate-N(NH4—N) is added to the soil and everything mixed well. Unfertilized controls received 1 ml pure water. Bottles are capped but loosely to allow air exchange. The bottles are then incubated at 20° C. for 0 and 28 days in Experiment 1, and for 0 and 42 days in Experiment 2.
(§2) For analysis, 300 ml of a 1% K2SO4-solution is added to the bottle containing the soil and shaken for 2 hours in a horizontal shaker at 150 rpm. Then the whole solution is filtered through a filter (Macherey-Nagel Filter MN 807 ¼). Ammonium and nitrate content is then analyzed in the filtrate using an autoanalyzer. Ammonium was quantified via an indophenol blue dye at 660 nm, and nitrate via an azo dye at 540 nm.
The nitrification inhibition is expressed as % of NH4—N recovery from fertilized NH4—N(100%) after subtraction of unfertilized control soil, and as % inhibition of NO3—N formation (% reduction of NO3^− production) according to the formula: […]
(§3) The results were compared with the results calculated by Colby (Colby, S.R., Calculating synergistic and antagonistic responses of herbicide combinations, Weeds, 15, pp. 20-22, 1967) for an additive effect.
(§4) Colby's formula:E=x+y−x·y/100 • E=expected efficacy, expressed in % of the untreated control, when using the mixture comprising the components (i) and (ii) at concentrations a and b; • x=efficacy, expressed in % of the untreated control, when using component (i) at the concentration a; • y=efficacy, expressed in % of the untreated control, when using component (ii) at the concentration b.
The following mixtures were tested analogously using 50 g soil Limburgerhof as defined above and ammonium sulfate as fertilizer in an amount N of 10 mg NH4N/100 g soil (number of replicates: 4)

[2] = test system: nitrification in soil Limburgerhof; experiment: Inhibition of nitrification in soil, Experiment 2 (incubation 42 days)
Experimental: (§5) The mixtures of the invention were tested as follows in terms of the inhibition of nitrification:
as §1, §2
(§6) The nitrification inhibition is expressed as % of NH4—N recovery from fertilized NH4—N(100%) after subtraction of unfertilized control soil, and as % inhibition of NO3—N formation (% reduction of NO3^− production) according to the formula:
(§7) In every experiment three tests (n=3) regarding the inhibition of nitrification were performed in each case.
as §3, §4

[3] = test system: nitrification in soil Limburgerhof; experiment: Inhibition of nitrification in soil, Experiment 1 (incubation 28 days)
Experimental: as §5, §1, §2, §6, §7, §3, §4

[4] = (i) 0, (ii) 1.25 wt.-% relative to NH4—N
[5] = (i) 0, (ii) 3.13 wt.-% relative to NH4—N
[6] = (i) 0, (ii) 0.2 wt.-% relative to NH4—N
[7] = (i) 0, (ii) 0.5 wt.-% relative to NH4—N
[8] = (i) 0, (ii) 1 wt.-% relative to NH4—N
[9] = (i) 0, (ii) 2 wt.-% relative to NH4—N
[10] = (i) 0.1, (ii) 0 wt.-% relative to NH4—N
[11] = (i) 0.3, (ii) 0 wt.-% relative to NH4—N
[12] = (i) 0.9, (ii) 0 wt.-% relative to NH4—N
[13] = (i) 2.7, (ii) 0 wt.-% relative to NH4—N
[14] = (i) 0.2, (ii) 0 wt.-% relative to NH4—N
[15] = (i) 0.4, (ii) 0 wt.-% relative to NH4—N
[16] = (i) 0.8, (ii) 0 wt.-% relative to NH4—N

`N#CN=C(N)N` [Component (ii), Dicyandiamide] was tested, and the “% Inhibition of NO3^− production after 28 days, Measured” value (from here on “% Inhibition … after 28 days, Measured”) [1, 4] was 4.3%, the “% Inhibition of NO3^− production after 42 days, Measured” value (from here on “% Inhibition … after 42 days, Measured”) [1, 4] was 4.0% and the “% NH4—N recovery from fertilized NH4—N after 28 days, Measured” value (from here on “% NH4—N recovery … after 28 days, Measured”) [1, 4] was 0.0%. For the same compound, the “% NH4—N recovery from fertilized NH4—N after 42 days, Measured” value (from here on “% NH4—N recovery … after 42 days, Measured”) [1, 4] was 0.0%, the “% Inhibition … after 28 days, Measured” value [1, 5] was 15.7% and the “% Inhibition … after 42 days, Measured” value [1, 5] was 4.0%. The “% NH4—N recovery … after 28 days, Measured” value [1, 5] was 0.0%, the “% NH4—N recovery … after 42 days, Measured” value [1, 5] was 0.0% and the “% Inhibition … after 42 days, Measured” value [2, 6] was 9.2%. The “% NH4—N recovery … after 42 days, Measured” value [2, 6] was 0%, the “% Inhibition … after 42 days, Measured” value [2, 7] was 10.4% and the “% Inhibition … after 42 days, Measured” value [2, 4] was 10.0%. For the same compound, the “% Inhibition … after 42 days, Measured” value [2, 5] was 15.4%, the “% Inhibition … after 28 days, Measured” value ([3]; (i) 0, (ii) 0.25 wt.-% relative to NH4—N) was −1.2% and the “% Inhibition … after 28 days, Measured” value [3, 7] was 7.7%. The “% Inhibition … after 28 days, Measured” value [3, 8] was 3.5%, the “% NH4—N recovery … after 28 days, Measured” value [3, 8] was 0.8% and the “% Inhibition … after 28 days, Measured” value [3, 9] was 16.3%. For the same compound, the “% NH4—N recovery … after 28 days, Measured” value [3, 9] was 9.0%.

`COc1cc(C)n[nH]1` [Component (i)] was tested, and the “% Inhibition … after 42 days, Measured” value [2, 10] was 2.5%, the “% Inhibition … after 42 days, Measured” value [2, 11] was 12.2% and the “% NH4—N recovery … after 42 days, Measured” value [2, 11] was 1.9%. The “% Inhibition … after 42 days, Measured” value [2, 12] was 42.1%, the “% NH4—N recovery … after 42 days, Measured” value [2, 12] was 29.6% and the “% Inhibition … after 42 days, Measured” value [2, 13] was 83.8%. The “% NH4—N recovery … after 42 days, Measured” value [2, 13] was 64.4%, the “% Inhibition … after 28 days, Measured” value [3, 10] was 0.5% and the “% NH4—N recovery … after 28 days, Measured” value [3, 10] was 0.7%. The “% Inhibition … after 28 days, Measured” value [3, 14] was 25.8%, the “% NH4—N recovery … after 28 days, Measured” value [3, 14] was 17.2% and the “% Inhibition … after 28 days, Measured” value [3, 15] was 44.2%. The “% NH4—N recovery … after 28 days, Measured” value [3, 15] was 41.8%, the “% Inhibition … after 28 days, Measured” value [3, 16] was 67.6% and the “% NH4—N recovery … after 28 days, Measured” value [3, 16] was 62.6%.
